{"source": "patent US20240307409A1", "about": "“ARGININE METHYLTRANSFERASE INHIBITOR AND USE THEREOF” (Cytosinlab Therapeutics Co., Ltd., priority 2021, published 2024)", "key": {"[1]": {"system": "Toledo cells", "assay": "Toledo cell proliferation inhibition assay", "type": "cell-based", "conditions": "Homo sapiens, Toledo, 144 h; six-day assay, CellTiter-Glo", "outline": "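Toledo cells seeded at 2000 cells/well in RPMI 1640 + 10% FBS and incubated with compound for six days at 37° C, 5% CO2. Viability was then read by CellTiter-Glo luminescence after 30 min orbital mixing.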"}, "[2]": {"target": "PRMT5 (Homo sapiens, UniProt O14744)", "sequence (O14744 whole entry, species assumed)": "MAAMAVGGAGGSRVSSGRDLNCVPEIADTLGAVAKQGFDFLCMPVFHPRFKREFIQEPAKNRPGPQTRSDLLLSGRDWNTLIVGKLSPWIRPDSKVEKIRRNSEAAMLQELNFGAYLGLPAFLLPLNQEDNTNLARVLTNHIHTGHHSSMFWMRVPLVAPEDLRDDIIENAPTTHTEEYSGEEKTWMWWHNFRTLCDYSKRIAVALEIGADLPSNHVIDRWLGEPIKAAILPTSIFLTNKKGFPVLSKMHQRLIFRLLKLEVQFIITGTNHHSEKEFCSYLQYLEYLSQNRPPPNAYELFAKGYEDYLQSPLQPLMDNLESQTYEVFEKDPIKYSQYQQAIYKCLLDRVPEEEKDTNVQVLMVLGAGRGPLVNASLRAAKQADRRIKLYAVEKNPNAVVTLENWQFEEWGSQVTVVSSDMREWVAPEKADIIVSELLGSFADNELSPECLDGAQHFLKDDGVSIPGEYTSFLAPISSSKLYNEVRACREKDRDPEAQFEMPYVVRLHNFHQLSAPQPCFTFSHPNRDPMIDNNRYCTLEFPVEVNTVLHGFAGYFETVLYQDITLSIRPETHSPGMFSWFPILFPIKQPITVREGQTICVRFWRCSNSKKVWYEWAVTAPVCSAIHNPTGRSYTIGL", "sequence (Q9BQA1 whole entry partner, species assumed)": "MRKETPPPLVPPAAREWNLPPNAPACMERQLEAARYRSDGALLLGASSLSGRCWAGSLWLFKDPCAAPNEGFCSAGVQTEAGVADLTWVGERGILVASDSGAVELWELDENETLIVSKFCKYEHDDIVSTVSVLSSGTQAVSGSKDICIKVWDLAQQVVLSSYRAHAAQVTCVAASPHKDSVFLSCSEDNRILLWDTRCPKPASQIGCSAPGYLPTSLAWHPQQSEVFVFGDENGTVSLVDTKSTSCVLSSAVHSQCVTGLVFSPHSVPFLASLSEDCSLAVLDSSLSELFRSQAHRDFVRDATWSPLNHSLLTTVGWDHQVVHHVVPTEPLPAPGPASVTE", "assay": "PRMT panel selectivity test, PRMT5", "type": "biochemical", "procedure": "[The procedure below names another target; the source says it served here with some conditions changed.] PRMT1 enzyme activity test were performed in a buffer prepared on the same day 5 consisting of 10 mMTirs-HCl (pH=8.0), 0.01% Tween-20 and 1 mM DTT. The compounds were prepared to the highest inhibitor concentration ultimately required in the 100× reaction with 100% DMSO and then transferred to one well of a 384-well Echo plate (Echo-eligible 384-well polypropylene microplates 2.0, transparent, flat-bottomed) and sequentially diluted in the next well with a 3-fold dilution of 100% DMSO, and so on, with a total of 10 concentrations based on Precision. 100% DMSO was added to two empty wells to serve as control well without compound and control well without enzyme in the same 384-well Echo plate. 250 nL of compound was transferred from each well of the 384-well Echo plate to a 384-well assay plate (384-well polypropylene storage microplate) via the Echo 550 liquid processor. For wells with compounds and control well without compound, a mixture (15 uL) containing PRMT1 enzyme was added to the 384-well assay plate. For control wells without enzyme, the mixture containing the assay buffer (15 uL) was added instead. The compounds were allowed to incubate with PRMT1 for 15 minutes at room temperature, and then a mixture containing ^3H-SAM and peptide (10 uL) was added to start the reaction (final volume=25 uL). […] After 120 min of incubation, the assay was terminated by the addition of non-radiolabeled SAM (5 uL) to a final concentration of 125 uM, which diluted 3H-SAM to a level at which its incorporation into the peptide substrate was no longer detected. […] Plates were read on a microplate counter (MicroBeta2) to measure the amount of ^3H-labeled peptide bound to the surface of the detection plate, measured in counts per minute (cpm).\nThe raw data were copied from the Reader and the inhibition values were calculated in Excel by Equation (1), Equation (1): Inh %=(CPMmax−CPMcmpd)/(CPMmax−CPMmin)*100, wherein the Max signal was obtained from the enzyme-substrate interaction and the Min signal was obtained from the substrate. […]"}}}
{"molecule": "CNCCN(C)Cc1ccccc1C1CCN(c2ccccc2)CC1", "note": "[P023]", "values": [{"measurement": "IC50", "setting": "[1]", "value": "< 1", "unit": "µM"}, {"measurement": "IC50", "setting": "[2]", "value": "≥ 10", "unit": "µM"}]}
{"molecule": "CNCCN(C)Cc1ncccc1N1CCc2ccccc2CC1", "note": "[P118]", "values": [{"measurement": "IC50", "setting": "[1]", "value": "< 1", "unit": "µM"}, {"measurement": "IC50", "setting": "[2]", "value": "≥ 10", "unit": "µM"}]}
{"molecule": "CCOCC1(COCC)CCC(c2cccnc2CN(C)CCNC)CC1", "note": "[P207]", "values": [{"measurement": "IC50", "setting": "[1]", "value": "< 1", "unit": "µM"}, {"measurement": "IC50", "setting": "[2]", "value": "≥ 10", "unit": "µM"}]}
